# Results published in ChEMBL document CHEMBL4251557 (Eur J Med Chem, 2017).
# Columns and labels:
# [1] = target: Neuraminidase (Influenza A virus) (UniProt A5Z252); settings: Influenza A virus (A/Anhui/1/2005(H5N1)); at 10 µM
# [2] = target: Neuraminidase (Influenza A virus) (UniProt A5Z252); settings: Influenza A virus (A/Anhui/1/2005(H5N1)); at 100 µM
# Neuraminidase [3] = target: Neuraminidase (Influenza A virus, UniProt A5Z252); test: Inhibition of Influenza A virus A/Anhui/1/2005(H5N1) neuraminidase using MUNANA as substrate preincubated for 5 to 15 mins followed by substrate addition measured after 30 mins by fluorescence assay
# Neuraminidase [4] = target: T1, Neuraminidase (Influenza A virus, UniProt B4URF0); test: Inhibition of Influenza A virus A/California/04/2009(H1N1) neuraminidase using MUNANA as substrate preincubated for 5 to 15 mins followed by substrate addition measured after 30 mins by fluorescence assay
# Neuraminidase [5] = target: T1, Neuraminidase; test: Inhibition of Influenza A virus A/Anhui/1/2013(H7N9) neuraminidase 150 cavity at 10 uM using MUNANA as substrate preincubated for 5 to 15 mins followed by substrate addition measured after 30 mins by fluorescence assay relative to control
# T1 sequence (B4URF0 whole entry): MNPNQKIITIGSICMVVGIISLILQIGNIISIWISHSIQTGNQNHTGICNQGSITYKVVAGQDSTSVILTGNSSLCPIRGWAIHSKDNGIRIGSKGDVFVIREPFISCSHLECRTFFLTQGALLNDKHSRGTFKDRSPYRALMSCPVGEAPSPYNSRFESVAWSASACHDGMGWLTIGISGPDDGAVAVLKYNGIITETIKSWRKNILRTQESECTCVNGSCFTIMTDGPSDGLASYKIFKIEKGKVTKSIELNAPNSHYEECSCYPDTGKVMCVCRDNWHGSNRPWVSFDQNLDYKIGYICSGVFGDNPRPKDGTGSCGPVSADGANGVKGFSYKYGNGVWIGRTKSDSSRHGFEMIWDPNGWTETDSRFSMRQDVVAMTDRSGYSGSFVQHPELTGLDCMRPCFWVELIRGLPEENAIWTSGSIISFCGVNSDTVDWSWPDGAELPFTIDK
Structure (SMILES),inhibition [1],inhibition [2],IC50 (Neuraminidase [3]),other results
CCCC(=O)N[C@H]1CC(C(=O)O)=C[C@@H](OC(CC)CC)[C@@H]1NC(C)=O,14.7%,66.8%,,
CCC(CC)O[C@@H]1C=C(C(=O)O)C[C@H](NC(=O)CN)[C@H]1NC(C)=O,,,2670 nM,
CCCCCC(=O)N[C@H]1CC(C(=O)O)=C[C@@H](OC(CC)CC)[C@@H]1NC(C)=O,,33.2%,,
CCC(CC)O[C@@H]1C=C(C(=O)O)C[C@H](NC(=O)[C@@H](C)N)[C@H]1NC(C)=O,18.8%,49.3%,,
CCC(CC)O[C@@H]1C=C(C(=O)O)C[C@H](NC(=O)CN(C)C)[C@H]1NC(C)=O,30%,58.2%,,
CCC(CC)O[C@@H]1C=C(C(=O)O)C[C@H](NC(=O)/C=C/c2ccccc2)[C@H]1NC(C)=O,14.5%,50.2%,,
CCC(CC)O[C@@H]1C=C(C(=O)O)C[C@H](NC(=O)Cc2c[nH]c3ccccc23)[C@H]1NC(C)=O,12.8%,47.3%,,
CCC(CC)O[C@@H]1C=C(C(=O)O)C[C@H](NC(C)=O)[C@H]1NC(C)=O,,,238 nM,IC50 (Neuraminidase [4]): 16.5 nM; IC50 (Neuraminidase [5]): 59.5 nM
CCC(CC)O[C@@H]1C=C(C(=O)O)C[C@H](NC(=O)C(F)F)[C@H]1NC(C)=O,,,190 nM,
CCC(CC)O[C@@H]1C=C(C(=O)O)C[C@H](NC(=O)C(C)C)[C@H]1NC(C)=O,14.2%,47.6%,,
CCC(=O)N[C@H]1CC(C(=O)O)=C[C@@H](OC(CC)CC)[C@@H]1NC(C)=O,47.9%,84.5%,,
C=CC(=O)N[C@H]1CC(C(=O)O)=C[C@@H](OC(CC)CC)[C@@H]1NC(C)=O,,,2980 nM,
CCC(CC)O[C@@H]1C=C(C(=O)O)C[C@H](NC(=O)C(F)(F)F)[C@H]1NC(C)=O,,,266 nM,
CCC(CC)O[C@@H]1C=C(C(=O)O)C[C@H](NC(=O)Cc2ccc(C)cc2)[C@H]1NC(C)=O,10%,57.2%,,
CCC(CC)O[C@@H]1C=C(C(=O)O)C[C@H](NC=O)[C@H]1NC(C)=O,,,1290 nM,
CCC(CC)O[C@@H]1C=C(C(=O)O)C[C@H](NC(=O)CCc2ccccc2)[C@H]1NC(C)=O,,19.1%,,
CCOC(=O)C1=C[C@@H](OC(CC)CC)[C@H](NC(C)=O)[C@@H](N)C1,91%,95.5%,,
CCC(CC)O[C@@H]1C=C(C(=O)O)C[C@H](NC(=O)[C@H](O)CCc2ccccc2)[C@H]1NC(C)=O,49.2%,60.4%,,
CCCCC(=O)N[C@H]1CC(C(=O)O)=C[C@@H](OC(CC)CC)[C@@H]1NC(C)=O,,11.3%,,
CCC(CC)O[C@@H]1C=C(C(=O)O)C[C@H](NC(=O)CCCc2ccccc2)[C@H]1NC(C)=O,,36%,,
CCC(CC)O[C@@H]1C=C(C(=O)O)C[C@H](NC(=O)CF)[C@H]1NC(C)=O,,,228 nM,
